Experimental data published in US6498125B2, “Pyridine ketones useful as herbicides” (Syngenta Participations AG, priority 1998, dated 2002).

System: Chenopodium
Experiment: Example B3: pre-emergence action, 250 g/ha
Assay type: in vivo
Conditions: 250 g of AS/ha, sprayed immediately after sowing, 3 weeks, nine-level scale 1=complete damage, 9=no effect
Experimental: (§1) Monocotyledonous and dicotyledonous test plants are sown in pots in standard soil. Immediately after sowing, the test substances are sprayed on (500 l of spray liquorlha) as an aqueous suspension, prepared from a wettable powder WP10 corresponding to the desired dosage (250 g of a.i./ha).
(§2) The test plants are then grown under optimum conditions in a greenhouse. After a test period of 3 weeks, the test is evaluated with a nine -evel scale of ratings (1=complete damage, 9=no effect). Ratings of 1 to 4 (in particular 1 to 3) mean good to very good herbicidal action, 7-9 mean good tolerance.

Row | SMILES | Pre-emergence action: Chenopodium (rating)
1 | CC[S+]([O-])c1ccc(C(=O)C2=C(O)C3CCC(C3)C2=O)c(C(F)(F)F)n1 (stereo not drawn) [Compound 1.343] | 1
2 | COc1ccc(C(=O)C2=C(O)C3CCC(C3)C2=O)c(C(F)(F)F)n1 (stereo not drawn) [Compound 1.347] | 1
3 | O=C(C1=C(O)C2CCC(C2)C1=O)c1ccc(OCC(F)(F)F)nc1C(F)(F)F (stereo not drawn) [Compound 1.349] | 1
4 | O=C(C1=C(O)C2CCC(C2)C1=O)c1ccc(Cl)nc1C(F)(F)F (stereo not drawn) [Compound 1.355] | 1

System: Kochia
Experiment: Example B3: pre-emergence action, 250 g/ha
Assay type: in vivo
Conditions: 250 g of AS/ha, sprayed immediately after sowing, 3 weeks, nine-level scale 1=complete damage, 9=no effect
Experimental: as §1, §2

Row | SMILES | Pre-emergence action: Kochia (rating)
5 | CC[S+]([O-])c1ccc(C(=O)C2=C(O)C3CCC(C3)C2=O)c(C(F)(F)F)n1 (stereo not drawn) [Compound 1.343] | 9
6 | COc1ccc(C(=O)C2=C(O)C3CCC(C3)C2=O)c(C(F)(F)F)n1 (stereo not drawn) [Compound 1.347] | 1
7 | O=C(C1=C(O)C2CCC(C2)C1=O)c1ccc(OCC(F)(F)F)nc1C(F)(F)F (stereo not drawn) [Compound 1.349] | 4
8 | O=C(C1=C(O)C2CCC(C2)C1=O)c1ccc(Cl)nc1C(F)(F)F (stereo not drawn) [Compound 1.355] | 1

System: Amaranthus
Experiment: Example B3: pre-emergence action, 250 g/ha
Assay type: in vivo
Conditions: 250 g of AS/ha, sprayed immediately after sowing, 3 weeks, nine-level scale 1=complete damage, 9=no effect
Experimental: as §1, §2

Row | SMILES | Pre-emergence action: Amaranthus (rating)
9 | CC[S+]([O-])c1ccc(C(=O)C2=C(O)C3CCC(C3)C2=O)c(C(F)(F)F)n1 (stereo not drawn) [Compound 1.343] | 4
10 | COc1ccc(C(=O)C2=C(O)C3CCC(C3)C2=O)c(C(F)(F)F)n1 (stereo not drawn) [Compound 1.347] | 2
11 | O=C(C1=C(O)C2CCC(C2)C1=O)c1ccc(OCC(F)(F)F)nc1C(F)(F)F (stereo not drawn) [Compound 1.349] | 3
12 | O=C(C1=C(O)C2CCC(C2)C1=O)c1ccc(Cl)nc1C(F)(F)F (stereo not drawn) [Compound 1.355] | 1

System: Sida
Experiment: Example B3: pre-emergence action, 250 g/ha
Assay type: in vivo
Conditions: 250 g of AS/ha, sprayed immediately after sowing, 3 weeks, nine-level scale 1=complete damage, 9=no effect
Experimental: as §1, §2

Row | SMILES | Pre-emergence action: Sida (rating)
13 | CC[S+]([O-])c1ccc(C(=O)C2=C(O)C3CCC(C3)C2=O)c(C(F)(F)F)n1 (stereo not drawn) [Compound 1.343] | 3
14 | COc1ccc(C(=O)C2=C(O)C3CCC(C3)C2=O)c(C(F)(F)F)n1 (stereo not drawn) [Compound 1.347] | 4
15 | O=C(C1=C(O)C2CCC(C2)C1=O)c1ccc(OCC(F)(F)F)nc1C(F)(F)F (stereo not drawn) [Compound 1.349] | 2
16 | O=C(C1=C(O)C2CCC(C2)C1=O)c1ccc(Cl)nc1C(F)(F)F (stereo not drawn) [Compound 1.355] | 2

System: Abutilon
Experiment: Example B3: pre-emergence action, 250 g/ha
Assay type: in vivo
Conditions: 250 g of AS/ha, sprayed immediately after sowing, 3 weeks, nine-level scale 1=complete damage, 9=no effect
Experimental: as §1, §2

Row | SMILES | Pre-emergence action: Abutilon (rating)
17 | CC[S+]([O-])c1ccc(C(=O)C2=C(O)C3CCC(C3)C2=O)c(C(F)(F)F)n1 (stereo not drawn) [Compound 1.343] | 1
18 | COc1ccc(C(=O)C2=C(O)C3CCC(C3)C2=O)c(C(F)(F)F)n1 (stereo not drawn) [Compound 1.347] | 2
19 | O=C(C1=C(O)C2CCC(C2)C1=O)c1ccc(OCC(F)(F)F)nc1C(F)(F)F (stereo not drawn) [Compound 1.349] | 1
20 | O=C(C1=C(O)C2CCC(C2)C1=O)c1ccc(Cl)nc1C(F)(F)F (stereo not drawn) [Compound 1.355] | 1

System: Stellaria
Experiment: Example B3: pre-emergence action, 250 g/ha
Assay type: in vivo
Conditions: 250 g of AS/ha, sprayed immediately after sowing, 3 weeks, nine-level scale 1=complete damage, 9=no effect
Experimental: as §1, §2

Row | SMILES | Pre-emergence action: Stellaria (rating)
21 | CC[S+]([O-])c1ccc(C(=O)C2=C(O)C3CCC(C3)C2=O)c(C(F)(F)F)n1 (stereo not drawn) [Compound 1.343] | 5
22 | COc1ccc(C(=O)C2=C(O)C3CCC(C3)C2=O)c(C(F)(F)F)n1 (stereo not drawn) [Compound 1.347] | 1
23 | O=C(C1=C(O)C2CCC(C2)C1=O)c1ccc(OCC(F)(F)F)nc1C(F)(F)F (stereo not drawn) [Compound 1.349] | 5
24 | O=C(C1=C(O)C2CCC(C2)C1=O)c1ccc(Cl)nc1C(F)(F)F (stereo not drawn) [Compound 1.355] | 2

System: Chenopodium
Experiment: Example B4: post-emergence action, 250 g/ha
Assay type: in vivo
Conditions: 250 g of AS/ha, sprayed in the 2-3-leaf stage, 0.2% X77, 3 weeks, nine-level scale 1=complete damage, 9=no effect
Experimental: (§3) Monocotyledonous and dicotyledonous test plants are sown in pots in standard soil. In the 2-3- leaf stage of the test plants, the test substances are sprayed on (500 l of spray liquor/ha) as an aqueous suspension, prepared from a wettable powder WP10 according to the desired dosage (250 g of a.i./ha). 0.2% of X77 is added as wetting agent to the spray liquor. The test plants are then grown under optimum conditions in a greenhouse.
(§4) After a test period of 3 weeks, the test is evaluated with a nine4evel scale of ratings (1=complete damage, 9=no effect). Ratings of 1 to 4 (in particular 1 to 3) mean good to very good herbicidal action, 7-9 mean good tolerance.

Row | SMILES | Post-emergence action: Chenopodium (rating)
25 | CC[S+]([O-])c1ccc(C(=O)C2=C(O)C3CCC(C3)C2=O)c(C(F)(F)F)n1 (stereo not drawn) [Compound 1.343] | 2
26 | COc1ccc(C(=O)C2=C(O)C3CCC(C3)C2=O)c(C(F)(F)F)n1 (stereo not drawn) [Compound 1.347] | 2
27 | O=C(C1=C(O)C2CCC(C2)C1=O)c1ccc(OCC(F)(F)F)nc1C(F)(F)F (stereo not drawn) [Compound 1.349] | 2
28 | O=C(C1=C(O)C2CCC(C2)C1=O)c1ccc(Cl)nc1C(F)(F)F (stereo not drawn) [Compound 1.355] | 2

System: Kochia
Experiment: Example B4: post-emergence action, 250 g/ha
Assay type: in vivo
Conditions: 250 g of AS/ha, sprayed in the 2-3-leaf stage, 0.2% X77, 3 weeks, nine-level scale 1=complete damage, 9=no effect
Experimental: as §3, §4

Row | SMILES | Post-emergence action: Kochia (rating)
29 | CC[S+]([O-])c1ccc(C(=O)C2=C(O)C3CCC(C3)C2=O)c(C(F)(F)F)n1 (stereo not drawn) [Compound 1.343] | 3
30 | COc1ccc(C(=O)C2=C(O)C3CCC(C3)C2=O)c(C(F)(F)F)n1 (stereo not drawn) [Compound 1.347] | 2
31 | O=C(C1=C(O)C2CCC(C2)C1=O)c1ccc(OCC(F)(F)F)nc1C(F)(F)F (stereo not drawn) [Compound 1.349] | 2
32 | O=C(C1=C(O)C2CCC(C2)C1=O)c1ccc(Cl)nc1C(F)(F)F (stereo not drawn) [Compound 1.355] | 3

System: Amaranthus
Experiment: Example B4: post-emergence action, 250 g/ha
Assay type: in vivo
Conditions: 250 g of AS/ha, sprayed in the 2-3-leaf stage, 0.2% X77, 3 weeks, nine-level scale 1=complete damage, 9=no effect
Experimental: as §3, §4

Row | SMILES | Post-emergence action: Amaranthus (rating)
33 | CC[S+]([O-])c1ccc(C(=O)C2=C(O)C3CCC(C3)C2=O)c(C(F)(F)F)n1 (stereo not drawn) [Compound 1.343] | 2
34 | COc1ccc(C(=O)C2=C(O)C3CCC(C3)C2=O)c(C(F)(F)F)n1 (stereo not drawn) [Compound 1.347] | 2
35 | O=C(C1=C(O)C2CCC(C2)C1=O)c1ccc(OCC(F)(F)F)nc1C(F)(F)F (stereo not drawn) [Compound 1.349] | 2
36 | O=C(C1=C(O)C2CCC(C2)C1=O)c1ccc(Cl)nc1C(F)(F)F (stereo not drawn) [Compound 1.355] | 2

System: Sida
Experiment: Example B4: post-emergence action, 250 g/ha
Assay type: in vivo
Conditions: 250 g of AS/ha, sprayed in the 2-3-leaf stage, 0.2% X77, 3 weeks, nine-level scale 1=complete damage, 9=no effect
Experimental: as §3, §4

Row | SMILES | Post-emergence action: Sida (rating)
37 | CC[S+]([O-])c1ccc(C(=O)C2=C(O)C3CCC(C3)C2=O)c(C(F)(F)F)n1 (stereo not drawn) [Compound 1.343] | 9
38 | COc1ccc(C(=O)C2=C(O)C3CCC(C3)C2=O)c(C(F)(F)F)n1 (stereo not drawn) [Compound 1.347] | 3
39 | O=C(C1=C(O)C2CCC(C2)C1=O)c1ccc(OCC(F)(F)F)nc1C(F)(F)F (stereo not drawn) [Compound 1.349] | 2
40 | O=C(C1=C(O)C2CCC(C2)C1=O)c1ccc(Cl)nc1C(F)(F)F (stereo not drawn) [Compound 1.355] | 2

System: Abutilon
Experiment: Example B4: post-emergence action, 250 g/ha
Assay type: in vivo
Conditions: 250 g of AS/ha, sprayed in the 2-3-leaf stage, 0.2% X77, 3 weeks, nine-level scale 1=complete damage, 9=no effect
Experimental: as §3, §4

Row | SMILES | Post-emergence action: Abutilon (rating)
41 | CC[S+]([O-])c1ccc(C(=O)C2=C(O)C3CCC(C3)C2=O)c(C(F)(F)F)n1 (stereo not drawn) [Compound 1.343] | 3
42 | COc1ccc(C(=O)C2=C(O)C3CCC(C3)C2=O)c(C(F)(F)F)n1 (stereo not drawn) [Compound 1.347] | 3
43 | O=C(C1=C(O)C2CCC(C2)C1=O)c1ccc(OCC(F)(F)F)nc1C(F)(F)F (stereo not drawn) [Compound 1.349] | 2
44 | O=C(C1=C(O)C2CCC(C2)C1=O)c1ccc(Cl)nc1C(F)(F)F (stereo not drawn) [Compound 1.355] | 2

System: Stellaria
Experiment: Example B4: post-emergence action, 250 g/ha
Assay type: in vivo
Conditions: 250 g of AS/ha, sprayed in the 2-3-leaf stage, 0.2% X77, 3 weeks, nine-level scale 1=complete damage, 9=no effect
Experimental: as §3, §4

Row | SMILES | Post-emergence action: Stellaria (rating)
45 | CC[S+]([O-])c1ccc(C(=O)C2=C(O)C3CCC(C3)C2=O)c(C(F)(F)F)n1 (stereo not drawn) [Compound 1.343] | 3
46 | COc1ccc(C(=O)C2=C(O)C3CCC(C3)C2=O)c(C(F)(F)F)n1 (stereo not drawn) [Compound 1.347] | 3
47 | O=C(C1=C(O)C2CCC(C2)C1=O)c1ccc(OCC(F)(F)F)nc1C(F)(F)F (stereo not drawn) [Compound 1.349] | 3
48 | O=C(C1=C(O)C2CCC(C2)C1=O)c1ccc(Cl)nc1C(F)(F)F (stereo not drawn) [Compound 1.355] | 3
